# Test results taken from US10968193B2, “Antidiabetic bicyclic compounds” (Merck Sharp & Dohme Corp., priority 2014, dated 2021).
# Molecular target: T1, human GPR40 (Homo sapiens, UniProt O14842)
# T1 construct: expressed in transfected cells; host or cells: HEK cells stably expressing the aequorin reporter
# Test: Inositol Phosphate Turnover (IP1) Assay 3
# Assay type: cell-based
# Conditions: HEK cells stably expressing human GPR40
# Method: Human and mouse GPR40 stable cell-lines were generated in CHO cells stably expressing NFAT BLA (Beta-lactamase). A human GPR40 stable cell-line was generated in HEK cells stably expressing the aequorin expressing reporter. The expression plasmids were transfected using lipofectamine (Life Technologies) following manufacturer's instructions. Stable cell-lines were generated following drug selection.
# Inositol Phosphate Turnover (IP1) Assay 3:
# The assay was performed in 384-well format. HEK cells stably expressing human GPR40 were plated at 7500 cells per well in growth medium (DMEM/10% fetal calf serum). Cell plates were then incubated 16 hours at 37 degrees in a 5% CO2 incubator.
# Measurement of Inositol Phosphate Turnover (IP) was performed using the CisBio IP-One kit (Part number 62IPAPEB). After the 16 hour incubation, the growth media was removed by centrifugation using the BlueWasher (AusWasher GUI Ver. v1.0.1.8) Protocol #21—“Light Dry” and 10 ul of stimulation buffer (prepared as described in the kit) was added to each well. In a separate plate, compounds were diluted in DMSO (200-fold over the final concentration in the assay well) and 50 nl was acoustically transferred to the appropriate well in the assay cell plate. The plates were then incubated for 60 minutes at 37 degrees in a 5% CO2 incubator. 10 ul of detection buffer (also prepared as described in the IP-One kit) was added to each well and the plates were incubated at rt for 60 minutes in the dark. The plates were then read in a Perkin Elmer EnVision or equivalent reader able to measure FRET. Fluorescent ratio of emission at 665 and 620 nm was then converted to IP1 concentration by back calculating from an IP1 standard curve prepared at the time of the assay. Data is normalized to % activity using a reference compound and EC50s determined using a standard 4-parameter fit.
# T1 sequence (O14842 whole entry): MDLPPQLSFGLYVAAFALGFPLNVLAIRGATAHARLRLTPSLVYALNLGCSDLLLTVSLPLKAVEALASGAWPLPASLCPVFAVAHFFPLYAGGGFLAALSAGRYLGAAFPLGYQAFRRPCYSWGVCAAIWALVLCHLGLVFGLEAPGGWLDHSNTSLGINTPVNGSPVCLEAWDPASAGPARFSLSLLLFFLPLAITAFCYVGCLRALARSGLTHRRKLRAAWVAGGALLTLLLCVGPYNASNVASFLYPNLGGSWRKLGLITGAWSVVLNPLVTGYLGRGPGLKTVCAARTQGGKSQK
row,Structure (SMILES),EC50 [nM]
1,"COc1cc(-c2ccc(C3CCc4ccc([C@H](C5CC5)[C@H](C)C(=O)O)cc4O3)cc2C(CN2CCCC2)OC)ccn1 (single isomer, unassigned) [Example 177, (2S, 3R)-3-cyclopropyl-3-((R or S)-2-(3-((R or S)-1-methoxy-2-(pyrrolidin-1-yl)ethyl)-4-(2-methoxypyridin-4-yl)phenylchroman-7-yl)-2-methylpropanoic acid]",231
2,"CCN(CC)Cc1cc(C2CCc3ccc([C@H](C4CC4)[C@H](C)C(=O)O)cc3O2)c(F)cc1-c1ccnc(OC)c1 (single isomer, unassigned) [Example 181]",14
3,"CCN(CC)Cc1cc(C2CCc3ccc([C@H](C4CC4)[C@H](C)C(=O)O)cc3O2)c(F)cc1-c1ccnc(OC)c1 (single isomer, unassigned) [Example 182]",16
4,"COc1cc(-c2cc(F)c(C3CCc4ccc([C@H](C5CC5)[C@H](C)C(=O)O)cc4O3)cc2CN(C(C)C)C(C)C)ccn1 (single isomer, unassigned) [Example 184]",0.73
5,"CCN(Cc1cc(C2CCc3ccc([C@H](C4CC4)[C@H](C)C(=O)O)cc3O2)c(F)cc1-c1ccnc(OC)c1)C(C)C (single isomer, unassigned) [Example 185]",4.4
6,"COc1cc(-c2cc(F)c(C3CCc4ccc([C@H](C5CC5)[C@H](C)C(=O)O)cc4O3)cc2CN2CCCCC23CC3)ccn1 (single isomer, unassigned) [Example 187]",0.4
7,"COc1cc(-c2cc(F)c(C3CCc4ccc([C@H](C5CC5)[C@H](C)C(=O)O)cc4O3)cc2CN2CCCCC23CC3)ccn1 (single isomer, unassigned) [Example 188]",0.7
8,"COc1ccc(F)c(-c2ccc(C3CCc4ccc([C@H](C5CC5)[C@H](C)C(=O)O)cc4O3)cc2CN2CCCCC23CC3)n1 (single isomer, unassigned) [Example 189]",5.1
9,"COc1cc(-c2ccc(C3CCc4ccc([C@H](C5CC5)[C@H](C)C(=O)O)cc4O3)cc2CN2CC3CC3C2)c(C#N)cn1 (single isomer, unassigned) [Example 192]",0.3
10,"COc1cc(-c2ccc(C3CCc4ccc([C@H](C5CC5)[C@H](C)C(=O)O)cc4O3)cc2CN(C)C(C)(C)C)c(C#N)cn1 (single isomer, unassigned) [Example 193]",1.5
11,"CCN(C)Cc1cc(C2CCc3ccc([C@H](C4CC4)[C@H](C)C(=O)O)cc3O2)ccc1-c1cc(OC)ncc1C#N (single isomer, unassigned) [Example 196]",7.2
12,"COc1cc(-c2ccc(C3CCc4ccc([C@H](C5CC5)[C@H](C)C(=O)O)c(F)c4O3)cc2CN2CCCC2)c(F)cn1 (single isomer, unassigned) [Example 199]",5.7
13,"COc1cc(-c2ccc(C3CCc4ccc([C@H](C5CC5)[C@H](C)C(=O)O)c(F)c4O3)cc2CN2CCCCC2)c(F)cn1 (single isomer, unassigned) [Example 200]",1.5
14,"COc1cc(-c2ccc(C3CCc4ccc([C@H](C5CC5)[C@H](C)C(=O)O)c(F)c4O3)cc2CN2CCCCC2)c(F)cn1 (single isomer, unassigned) [Example 201]",4.4
15,"COc1cc(-c2ccc(C3CCc4ccc([C@H](C5CC5)[C@H](C)C(=O)O)c(F)c4O3)cc2CN2CCCCC23CC3)c(F)cn1 (single isomer, unassigned) [Example 202]",0.16
16,"CCN(CC)Cc1cc(C2CCc3ccc([C@H](C4CC4)[C@H](C)C(=O)O)c(F)c3O2)ccc1-c1cc(OC)ncc1F (single isomer, unassigned) [Example 204]",2.1
17,"COc1cc(-c2ccc(C3CCc4ccc([C@H](C5CC5)[C@H](C)C(=O)O)c(F)c4O3)cc2CN2CCCC2(C)C)c(F)cn1 (single isomer, unassigned) [Example 206]",1.3
18,"COc1cc(-c2ccc(C3CCc4ccc([C@H](C5CC5)[C@H](C)C(=O)O)c(F)c4O3)cc2CN2CCCC2(C)C)c(F)cn1 (single isomer, unassigned) [Example 207]",1.3
19,"COc1cc(-c2ccc(C3CCc4ccc([C@H](C5CC5)[C@H](C)C(=O)O)c(F)c4O3)cc2CN2CCC[C@H]2C)c(F)cn1 (single isomer, unassigned) [Example 210]",3.1
20,"COc1cc(-c2ccc(C3CCc4ccc([C@H](C5CC5)[C@H](C)C(=O)O)c(F)c4O3)cc2CN2CCC[C@H]2C)c(F)cn1 (single isomer, unassigned) [Example 211]",2.1
21,"COc1cc(-c2ccc(C3CCc4ccc([C@H](C5CC5)[C@H](C)C(=O)O)c(F)c4O3)cc2CN2CCC[C@@H]2C)c(F)cn1 (single isomer, unassigned) [Example 212]",3.1
22,"COc1cc(-c2ccc(C3CCc4ccc([C@H](C5CC5)[C@H](C)C(=O)O)c(F)c4O3)cc2CN2CCC[C@@H]2C)c(F)cn1 (single isomer, unassigned) [Example 213]",1.4
23,"CCOc1cc(-c2ccc(C3CCc4ccc([C@H](C5CC5)[C@H](C)C(=O)O)cc4O3)cc2CN(CC)CC)c(Cl)cn1 (single isomer, unassigned) [Example 215]",6
24,"CCOc1cc(-c2ccc(C3CCc4ccc([C@H](C5CC5)[C@H](C)C(=O)O)cc4O3)cc2CN2CCCC2)c(Cl)cn1 (single isomer, unassigned) [Example 217]",57
25,"COc1cc(-c2ccc(C3CCc4ccc([C@H](C5CC5)[C@H](C)C(=O)O)cc4O3)c(F)c2CN2CCCC2)c(F)cn1 (single isomer, unassigned) [Example 219]",2
26,"COc1cc(-c2ccc(C3CCc4ccc([C@H](C5CC5)[C@H](C)C(=O)O)cc4O3)c(F)c2CN2CCCC2)c(F)cn1 (single isomer, unassigned) [Example 220]",7.2
27,"COc1cc(-c2ccc(C3CCc4ccc([C@H](C5CC5)[C@H](C)C(=O)O)cc4O3)cc2CN2CCCCC23CC3)ccn1 (single isomer, unassigned) [Example 222]",1.3
28,"COc1cc(-c2ccc(C3CCc4ccc([C@H](C5CC5)[C@H](C)C(=O)O)cc4O3)c(CN3CCCCC34CC4)c2)ccn1 (single isomer, unassigned) [Example 224]",11

# More lines, in order of falling EC50, values ahead:
row,EC50 [nM],Structure (SMILES)
1,136,"COc1cc(-c2ccc(C3CCc4ccc([C@H](C5CC5)[C@H](C)C(=O)O)cc4O3)cc2C(CN2CCCC2)OC)ccn1 (single isomer, unassigned) [Example 178]"
2,14,"CCN(CC)Cc1cc(C2CCc3ccc([C@H](C4CC4)[C@H](C)C(=O)O)cc3O2)ccc1-c1ccnc(OC)c1 (single isomer, unassigned) [Example 221]"
3,12,"CCN(C)Cc1cc(C2CCc3ccc([C@H](C4CC4)[C@H](C)C(=O)O)cc3O2)ccc1-c1cc(OC)ncc1C#N (single isomer, unassigned) [Example 195]"
4,12,"CCOc1cc(-c2ccc(C3CCc4ccc([C@H](C5CC5)[C@H](C)C(=O)O)cc4O3)cc2CN(CC)CC)c(Cl)cn1 (single isomer, unassigned) [Example 214]"
5,10,"CCOc1cc(-c2ccc(C3CCc4ccc([C@H](C5CC5)[C@H](C)C(=O)O)cc4O3)cc2CN2CCCC2)c(Cl)cn1 (single isomer, unassigned) [Example 218]"
6,7.9,"CCN(Cc1cc(C2CCc3ccc([C@H](C4CC4)[C@H](C)C(=O)O)cc3O2)c(F)cc1-c1ccnc(OC)c1)C(C)C (single isomer, unassigned) [Example 186]"
7,4.7,"COc1cc(-c2ccc(C3CCc4ccc([C@H](C5CC5)[C@H](C)C(=O)O)c(F)c4O3)cc2CN2CCCC2)c(F)cn1 (single isomer, unassigned) [Example 198]"
8,2.4,"CCN(CC)Cc1cc(C2CCc3ccc([C@H](C4CC4)[C@H](C)C(=O)O)c(F)c3O2)ccc1-c1cc(OC)ncc1F (single isomer, unassigned) [Example 205]"
9,1.1,"COc1cc(-c2ccc(C3CCc4ccc([C@H](C5CC5)[C@H](C)C(=O)O)cc4O3)cc2CN(C)C(C)(C)C)c(C#N)cn1 (single isomer, unassigned) [Example 194]"
10,0.73,"COc1cc(-c2ccc(C3CCc4ccc([C@H](C5CC5)[C@H](C)C(=O)O)c(F)c4O3)cc2CN2[C@H](C)CC[C@H]2C)c(F)cn1 (single isomer, unassigned) [Example 208]"
11,0.5,"COc1cc(-c2ccc(C3CCc4ccc([C@H](C5CC5)[C@H](C)C(=O)O)c(F)c4O3)cc2CN2[C@H](C)CC[C@H]2C)c(F)cn1 (single isomer, unassigned) [Example 209]"
12,0.35,"COc1cc(-c2cc(F)c(C3CCc4ccc([C@H](C5CC5)[C@H](C)C(=O)O)cc4O3)cc2CN(C(C)C)C(C)C)ccn1 (single isomer, unassigned) [Example 183]"
13,0.16,"COc1cc(-c2ccc(C3CCc4ccc([C@H](C5CC5)[C@H](C)C(=O)O)c(F)c4O3)cc2CN2CCCCC23CC3)c(F)cn1 (single isomer, unassigned) [Example 203]"
14,0.05,"COc1cc(-c2ccc(C3CCc4ccc([C@H](C5CC5)[C@H](C)C(=O)O)cc4O3)c(CN3CCCCC34CC4)c2)ccn1 (single isomer, unassigned) [Example 223]"
